Results on 38 molecules are retold here after patent US20230414839A1, “COATED MEDICAL PRODUCT” (HEMOTEQ AG, priority 2020, published 2023).

Like-named read-outs stand apart in the source and are kept apart here.

For series [1] the following is noted: cited from earlier work.
Series [2] can be described thus: crystal suspensions of microcrystalline everolimus in different solvent mixtures (Example 6). The format is physicochemical. Also on record: key: +++: good; +/−: average; −−−: poor. As to conditions: 770 mg trioctanoylglycerol per 100 mL. Here is the method:
To prepare the solutions, 770 mg of trioctanoylglycerol was dissolved in the polar solvent. Then the nonpolar solvent was added. It was then homogenized and filtered.
To test whether crystal suspensions could be prepared, 10 mL of each of the solutions was carefully added to 200 mg of everolimus in the form of microcrystals at room temperature. After combining, it was tested whether stable crystal suspensions were obtained.

The mark [3] stands for this setting: non-solvents, rounded values (Table 2).
The mark [4] stands for this setting: nonpolar organic solvents, rounded values (Table 4).
Where [5] appears, read: nonpolar organic solvents (Table 8).
[6] abbreviates: polar organic solvents, rounded values (Table 6).
Where [7] appears, read: polar organic solvents (Table 7).

Regarding `C1COCCO1` [1,4-Dioxane], in series [1], the “log KOW” value is “about −0.4”.
Regarding `CC(C)CC(C)(C)C` [2,2,4-Trimethylpentane], in series [1] (setting [3]), the logKOW was 4.1.
As for `CCC(C)(C)C` [2,2-Dimethylbutane], the logKOW in series [1] (setting [3]) is 3.8.
For the molecule `CCCC(C)(C)C` [2,2-Dimethylpentane], in series [1] (setting [3]), the logKOW was 3.8.
For the molecule `CCC(C)C(C)C` (stereo not shown) [2,3-Dimethylpentane], in series [1] (setting [3]), the logKOW is recorded as 3.8.
Consider `CC(C)Cc1ccccc1` [2-Methyl-1-phenylpropane], for which the logKOW in series [1] (setting [4]) was 3.4.
In the case of `CCCCC(C)C` [2-Methylhexane], in series [1] (setting [3]), the logKOW was 3.7.
With `CCCC(C)C` [2-Methylpentane], the logKOW in series [1] (setting [3]) is 3.6.
Consider `CCC(C)c1ccccc1` (stereo not shown) [2-Phenylbutane], for which the logKOW in series [1] (setting [4]) is 3.4.
As to `COc1ccccc1` [Anisol], in series [1] (setting [4]), the logKOW was 2.1.
Take `Clc1ccccc1` [Chlorobenzene]: the “log KOW” value in series [1] is “about 2.9”. Also, in series [1] (setting [4]), the logKOW was 2.9.
Take `CC(C)c1ccccc1` [Cumol]: the logKOW in series [1] (setting [4]) is 3.4.
Turning to `C1CCCCCCCCC1` [Cyclodecane], the logKOW in series [1] (setting [3]) is 5.5.
With `C1CCCCCC1` [Cycloheptane], in series [1] (setting [3]), the logKOW is 4.
With `C1CCCCCCCC1` [Cyclononan], in series [1] (setting [3]), the logKOW was 5.1.
As for `C1CCCC1` [Cyclopentane], the results for the logKOW in series [1] (setting [3]) and in series [1] (setting [5]) were 3.0 and 3.00, respectively.
For the molecule `CCCCCCCCCC` [Decan], the logKOW was 6.3 in series [1] (setting [3]) and 6.25 in series [1] (setting [5]).
On to `CCCOCCC` [Dipropyl ether], for which the logKOW result in series [1] (setting [6]) is recorded as “+2.0”.
`CCOc1ccccc1` [Ethoxybenzene]: the logKOW in series [1] (setting [4]) is given as 2.5.
Take `CCOC(C)=O` [Ethyl acetate]: the logKOW in series [1] (setting [7]) was 0.73; in series [1] (setting [6]), “+0.7”.
On to `CCc1ccccc1` [Ethylbenzene], for which the logKOW in series [1] (setting [4]) is reported as 3.2.
Regarding `CO[C@H]1C[C@@H]2CC[C@@H](C)[C@@](O)(O2)C(=O)C(=O)N2CCCC[C@H]2C(=O)O[C@H]([C@H](C)C[C@@H]2CC[C@@H](OCCO)[C@H](OC)C2)CC(=O)[C@H](C)/C=C(\C)[C@@H](O)[C@@H](OC)C(=O)[C@H](C)C[C@H](C)/C=C/C=C/C=C/1C` [Everolimus, 40-O-(2-hydroxyethyl)rapamycin], the Crystal suspension entry in series [2] (Acetone/Cyclohexane 10:90 (v/v)) is reported as “+++”; in series [2] (Acetone/Cyclohexane 30:70 (v/v)) it was “+/−”; in series [2] (Acetone/Cyclohexane 40:60 (v/v)), “+/−”; in series [2] (Acetone/Cyclohexane 50:50 (v/v)) it was “−−−”; in series [2] (Acetone/Cyclohexane 60:40 (v/v)) it was “−−−”; in series [2] (Acetone/Heptane 10:90 (v/v)), “+++”. Further, the Crystal suspension entry in series [2] (Acetone/Heptane 30:70 (v/v)) is given as “+/−”; in series [2] (Acetone/Heptane 40:60 (v/v)), “+/−”; in series [2] (Acetone/Heptane 50:50 (v/v)), “−−−”; in series [2] (Acetone/Heptane 60:40 (v/v)), “−−−”; in series [2] (Acetone/Hexane 10:90 (v/v)) it was “+++”; in series [2] (Acetone/Hexane 30:70 (v/v)), “+/−”. Besides, the Crystal suspension result in series [2] (Acetone/Hexane 40:60 (v/v)) is given as “+/−”; in series [2] (Acetone/Hexane 50:50 (v/v)), “−−−”; in series [2] (Acetone/Hexane 60:40 (v/v)) it was “−−−”; in series [2] (Ethanol/Cyclohexane 10:90 (v/v)) it was “+++”; in series [2] (Ethanol/Cyclohexane 40:60 (v/v)) it was “+/−”; in series [2] (Ethanol/Cyclohexane 50:50 (v/v)), “−−−”. Further, the Crystal suspension result was “−−−” in series [2] (Ethanol/Cyclohexane 60:40 (v/v)); “+++” in series [2] (Ethanol/Heptane 10:90 (v/v)); “+/−” in series [2] (Ethanol/Heptane 40:60 (v/v)); “−−−” in series [2] (Ethanol/Heptane 50:50 (v/v)); “−−−” in series [2] (Ethanol/Heptane 60:40 (v/v)); “+++” in series [2] (Ethanol/Hexane 10:90 (v/v)). Further, the Crystal suspension result in series [2] (Ethanol/Hexane 40:60 (v/v)) is recorded as “+/−”; in series [2] (Ethanol/Hexane 50:50 (v/v)), “−−−”; in series [2] (Ethanol/Hexane 60:40 (v/v)), “−−−”; in series [2] (Ethyl acetate/Cyclohexane 10:90 (v/v)), “+++”; in series [2] (Ethyl acetate/Cyclohexane 30:70 (v/v)), “+++”; in series [2] (Ethyl acetate/Cyclohexane 40:60 (v/v)) it was “+++”. In addition, the Crystal suspension result is recorded as “+/−” in series [2] (Ethyl acetate/Cyclohexane 50:50 (v/v)); “+/−” in series [2] (Ethyl acetate/Cyclohexane 60:40 (v/v)); “+++” in series [2] (Ethyl acetate/Heptane 10:90 (v/v)); “+++” in series [2] (Ethyl acetate/Heptane 30:70 (v/v)); “+++” in series [2] (Ethyl acetate/Heptane 40:60 (v/v)); “+/−” in series [2] (Ethyl acetate/Heptane 50:50 (v/v)). For the same molecule, the Crystal suspension entry in series [2] (Ethyl acetate/Heptane 60:40 (v/v)) is given as “+/−”; in series [2] (Ethyl acetate/Hexane 10:90 (v/v)) it was “+++”; in series [2] (Ethyl acetate/Hexane 30:70 (v/v)) it was “+++”; in series [2] (Ethyl acetate/Hexane 40:60 (v/v)) it was “+++”; in series [2] (Ethyl acetate/Hexane 50:50 (v/v)), “+/−”; in series [2] (Ethyl acetate/Hexane 60:40 (v/v)), “+/−”. Further, the Crystal suspension entry in series [2] (iso-propanol/Cyclohexane 10:90 (v/v)) is “+++”; in series [2] (iso-propanol/Cyclohexane 30:70 (v/v)) it was “+/−”; in series [2] (iso-propanol/Cyclohexane 40:60 (v/v)) it was “+/−”; in series [2] (iso-propanol/Cyclohexane 50:50 (v/v)) it was “−−−”; in series [2] (iso-propanol/Cyclohexane 60:40 (v/v)) it was “−−−”; in series [2] (iso-propanol/Heptane 10:90 (v/v)) it was “+++”. In addition, the Crystal suspension result in series [2] (iso-propanol/Heptane 30:70 (v/v)) is “+/−”; in series [2] (iso-propanol/Heptane 40:60 (v/v)), “+/−”; in series [2] (iso-propanol/Heptane 50:50 (v/v)) it was “−−−”; in series [2] (iso-propanol/Heptane 60:40 (v/v)) it was “−−−”; in series [2] (iso-propanol/Hexane 10:90 (v/v)), “+++”; in series [2] (iso-propanol/Hexane 30:70 (v/v)), “+/−”. In addition, the Crystal suspension entry in series [2] (iso-propanol/Hexane 40:60 (v/v)) is reported as “+/−”; in series [2] (iso-propanol/Hexane 50:50 (v/v)) it was “−−−”; in series [2] (iso-propanol/Hexane 60:40 (v/v)), “−−−”.
Consider `OCC(O)CO` [Glycerin], for which the logKOW in series [1] (setting [6]) is −1.8.
Take `CCCCCCC` [Heptane]: the figures for the logKOW in series [1] (setting [3]) and in series [1] (setting [5]) were 4.5 and 4.50, respectively.
Regarding `CCC(C)C` [Isopentane], the logKOW in series [1] (setting [3]) is on record as 3.2.
Regarding `COC(C)=O` [Methyl acetate], the logKOW result in series [1] (setting [6]) is “+0.2”.
In the case of `CC1CCCC1` [Methylcyclopentane], the logKOW in series [1] (setting [3]) is 3.4.
Turning to `CN1CCCC1=O` [N-methylpyrrolidone], the logKOW in series [1] (setting [6]) was −0.5.
For `CCCCCCCCC` [Nonan], the logKOW in series [1] (setting [3]) is on record as 5.7; in series [1] (setting [5]) it was 5.65.
In the case of `CCCCCCCC` [Octane], the logKOW was 5.2 in series [1] (setting [3]) and 5.15 in series [1] (setting [5]).
`CCC(=O)O` [Propionic acid]: the logKOW in series [1] (setting [7]) is on record as 0.32.
Turning to `CCCC(C)=O` [Solution 2-Pentanone, 2-Pentanone], the values for the logKOW in series [1] (setting [7]) and in series [1] (setting [6]) were 0.84 and “+0.9”, respectively.
Turning to `FC(F)(F)C(F)(F)C(F)(F)C(F)(F)C(F)(F)C(F)(F)F` [Tetradecafluorohexane], the logKOW in series [1] (setting [4]) is 5.8.
Turning to `C1CCOC1` [Tetrahydrofuran (THF), Tetrahydrofuran], the logKOW in series [1] (setting [7]) was 0.46; in series [1] (setting [6]) it was “+0.5”.
Take `O` [Water]: the logKOW entry in series [1] (polar organic solvents, rounded orientation values (Table 5)) is “approx. −1.4”.
Take `CC(C)Cc1ccccc1` [iso-butylbenzene]: the logKOW in series [1] (setting [4]) is given as 4.1.
Turning to `CCCOC(C)=O` [n-Propyl acetate], the logKOW result in series [1] (setting [6]) is “+1.4”.
In the case of `Clc1ccccc1Cl` [o-Dichlorobenzene], the logKOW in series [1] (setting [4]) is on record as 3.4.
